{"source": "patent EP2322194A2", "about": "(Reprise Biopharmaceutics, LLC, priority 2003, dated 2005)", "tested_on": "over-hydrated, healthy, non-smoking male and female volunteers", "format": "in vivo, human", "conditions": "for Urine Output: individual subjects", "description": "Briefly, an open-label, crossover study with 8 healthy, over-hydrated, non-smoking male and female volunteers, age 18-40. The subjects were dosed initially with 0.5 ng/kg dose, then with the 1.0 ng/kg dose and finally the 2.0 ng/kg dose. Pharmacodynamic and pharmacokinetic parameters were evaluated at each dose level. A washout period of two days (48 hours) was observed between dosing. Eight subjects evaluated in this study, 5 males, and 3 females. […] Each subject remained in the clinic from one day prior to first dosing to one day after last dosing for a total of 7 days. […] At this point over-hydration was discontinued. […] Urine-specific gravity was also measured. […] This same procedure was followed for the 1.0 ng/kg and 2.0 ng/kg infusions. […] Criteria for evaluation in the study included urine output over time, urine osmolality over time, urine-specific gravity over time, and […] osmolality and sodium over time. Statistical analysis on the above criteria was performed. The statistical analysis is descriptive and all statistical hypothesis testing was done for exploratory purposes. […] The second and third estimation used 200 mOsm/kg and 400 mOsm/kg as cut off levels for 'onset' and 'end' of action, respectively. […] The overall duration of action was estimated for each dose group using the nonparametric Kaplan-Meier method. […] Furthermore, the duration of action was presented for each treatment group using the mean, SD, median, minimum and maximum values. The dose-response relationship between duration of action and dose was investigated using an appropriate linear or nonlinear model.", "key": {"[1]": {"conditions": "1.0 ng/kg, time -20 min (baseline)"}, "[2]": {"conditions": "2.0 ng/kg, time 0 min (baseline)"}, "[3]": {"conditions": "2.0 ng/kg, time -20 min (baseline)"}}, "note": "“And” between values parts separate entries of the source, which are not always exact repeats. Identical values can stand only once. Like-named read-outs stand apart in the source and are kept apart here.", "data": [{"substance": "1-desamino-8-D-arginine vasopressin [desmopressin]", "values": [{"measurement": "Urine Osmolality, Mean", "setting": "1.0 ng/kg, time 140 min", "value": 412.2, "unit": "mOsm/kg"}, {"measurement": "Urine Output, Mean", "setting": "1.0 ng/kg, time 140 min", "value": 1.8, "unit": "mL/min"}, {"measurement": "Urine Output", "setting": "1.0 ng/kg, time 140 min", "value": 0, "unit": "mL/min"}, {"measurement": "Urine Osmolality, Mean", "setting": "1.0 ng/kg, time 160 min", "value": 261.7, "unit": "mOsm/kg"}, {"measurement": "Urine Output, Mean", "setting": "1.0 ng/kg, time 160 min", "value": 3.2, "unit": "mL/min"}, {"measurement": "Urine Osmolality, Mean", "setting": "1.0 ng/kg, time 180 min", "value": 280.9, "unit": "mOsm/kg"}, {"measurement": "Urine Output, Mean", "setting": "1.0 ng/kg, time 180 min", "value": 5.0, "unit": "mL/min"}, {"measurement": "Urine Output", "setting": "1.0 ng/kg, time 180 min", "value": 7.1, "unit": "mL/min"}, {"measurement": "Urine Osmolality, Mean", "setting": "1.0 ng/kg, time 200 min", "value": 216.3, "unit": "mOsm/kg"}, {"measurement": "Urine Output, Mean", "setting": "1.0 ng/kg, time 200 min", "value": 6.7, "unit": "mL/min"}, {"measurement": "Urine Output", "setting": "1.0 ng/kg, time 200 min", "value": 4.3, "unit": "mL/min"}, {"measurement": "Urine Osmolality, Mean", "setting": "1.0 ng/kg, time 220 min", "value": 121.4, "unit": "mOsm/kg"}, {"measurement": "Urine Output, Mean", "setting": "1.0 ng/kg, time 220 min", "value": 7.3, "unit": "mL/min"}, {"measurement": "Urine Osmolality, Mean", "setting": "1.0 ng/kg, time 240 min", "value": "181.6' mOsm/kg"}, {"measurement": "Urine Output", "setting": "1.0 ng/kg, time 240 min", "value": 5.5, "unit": "mL/min"}, {"measurement": "Urine Osmolality, Mean", "setting": "1.0 ng/kg, time 260 min", "value": 181.8, "unit": "mOsm/kg"}, {"measurement": "Urine Output, Mean", "setting": "1.0 ng/kg, time 260 min", "value": 6.6, "unit": "mL/min"}, {"measurement": "Urine Output", "setting": "1.0 ng/kg, time 260 min", "value": 4.7, "unit": "mL/min"}, {"measurement": "Urine Osmolality, Mean", "setting": "1.0 ng/kg, time 280 min", "value": 242.5, "unit": "mOsm/kg"}, {"measurement": "Urine Output, Mean", "setting": "1.0 ng/kg, time 280 min", "value": 4.7, "unit": "mL/min"}, {"measurement": "Urine Output", "setting": "1.0 ng/kg, time 280 min", "value": 0, "unit": "mL/min"}, {"measurement": "Urine Osmolality, Mean", "setting": "1.0 ng/kg, time 300 min", "value": 202.0, "unit": "mOsm/kg"}, {"measurement": "Urine Output", "setting": "1.0 ng/kg, time 300 min", "value": 11.5, "unit": "mL/min"}, {"measurement": "Urine Osmolality, Mean", "setting": "1.0 ng/kg, time 320 min", "value": 164.8, "unit": "mOsm/kg"}, {"measurement": "Urine Output", "setting": "1.0 ng/kg, time 320 min", "value": 6.7, "unit": "mL/min"}, {"measurement": "Urine Osmolality, Mean", "setting": "1.0 ng/kg, time 340 min", "value": 155.5, "unit": "mOsm/kg"}, {"measurement": "Urine Output, Mean", "setting": "1.0 ng/kg, time 340 min", "value": 10.6, "unit": "mL/min"}, {"measurement": "Urine Osmolality, Mean", "setting": "1.0 ng/kg, time 360 min", "value": 156.3, "unit": "mOsm/kg"}, {"measurement": "Urine Output, Mean", "setting": "1.0 ng/kg, time 360 min", "value": 10.4, "unit": "mL/min"}, {"measurement": "Urine Osmolality, Mean", "setting": "[1]", "value": 55.8, "unit": "mOsm/kg"}, {"measurement": "Urine Output, Mean", "setting": "[1]", "value": 16.6, "unit": "mL/min"}, {"measurement": "Urine Output", "setting": "[1]", "value": "10.2 mL/min and 16.8 mL/min"}, {"measurement": "duration of antidiuretic effect", "setting": "2.0 ng/kg dose", "value": "~360", "unit": "min"}, {"measurement": "Mean peak urine osmolality", "setting": "2.0 ng/kg dose, at 2 hours", "value": 587.2, "unit": "mOsm/kg"}, {"measurement": "Baseline mean urine osmolality", "setting": "2.0 ng/kg dose, baseline", "value": 55.6, "unit": "mOsm/kg"}, {"measurement": "Baseline mean urine output", "setting": "2.0 ng/kg dose, baseline", "value": 16.9, "unit": "mL/min"}, {"measurement": "Mean nadir urine output", "setting": "2.0 ng/kg dose, end of 2 hour infusion", "value": 0.7, "unit": "mL/min"}, {"measurement": "Urine Osmolality, Mean", "setting": "[2]", "value": 56.0, "unit": "mOsm/kg"}, {"measurement": "Urine Output, Mean", "setting": "[2]", "value": 16.5, "unit": "mL/min"}, {"measurement": "Urine Osmolality, Mean", "setting": "2.0 ng/kg, time 20 min", "value": 75.6, "unit": "mOsm/kg"}, {"measurement": "Urine Output, Mean", "setting": "2.0 ng/kg, time 20 min", "value": 10.5, "unit": "mL/min"}, {"measurement": "Urine Osmolality, Mean", "setting": "2.0 ng/kg, time 40 min", "value": 301.4, "unit": "mOsm/kg"}, {"measurement": "Urine Output, Mean", "setting": "2.0 ng/kg, time 40 min", "value": 2.3, "unit": "mL/min"}, {"measurement": "Urine Osmolality, Mean", "setting": "2.0 ng/kg, time 60 min", "value": 410.0, "unit": "mOsm/kg"}, {"measurement": "Urine Output, Mean", "setting": "2.0 ng/kg, time 60 min", "value": 1.3, "unit": "mL/min"}, {"measurement": "Urine Osmolality, Mean", "setting": "2.0 ng/kg, time 80 min", "value": 516.0, "unit": "mOsm/kg"}, {"measurement": "Urine Output, Mean", "setting": "2.0 ng/kg, time 80 min", "value": 0.7, "unit": "mL/min"}, {"measurement": "Urine Osmolality, Mean", "setting": "2.0 ng/kg, time 100 min", "value": 525.6, "unit": "mOsm/kg"}, {"measurement": "Urine Output, Mean", "setting": "2.0 ng/kg, time 100 min", "value": 0.7, "unit": "mL/min"}, {"measurement": "Urine Osmolality, Mean", "setting": "2.0 ng/kg, time 120 min", "value": 587.2, "unit": "mOsm/kg"}, {"measurement": "Urine Output, Mean", "setting": "2.0 ng/kg, time 120 min", "value": 0.7, "unit": "mL/min"}, {"measurement": "Urine Osmolality, Mean", "setting": "2.0 ng/kg, time 140 min", "value": 576.7, "unit": "mOsm/kg"}, {"measurement": "Urine Output, Mean", "setting": "2.0 ng/kg, time 140 min", "value": 1.0, "unit": "mL/min"}, {"measurement": "Urine Osmolality, Mean", "setting": "2.0 ng/kg, time 160 min", "value": 534.7, "unit": "mOsm/kg"}, {"measurement": "Urine Output, Mean", "setting": "2.0 ng/kg, time 160 min", "value": 1.2, "unit": "mL/min"}, {"measurement": "Urine Osmolality, Mean", "setting": "2.0 ng/kg, time 180 min", "value": 534.3, "unit": "mOsm/kg"}, {"measurement": "Urine Output, Mean", "setting": "2.0 ng/kg, time 180 min", "value": 1.2, "unit": "mL/min"}, {"measurement": "Urine Osmolality, Mean", "setting": "2.0 ng/kg, time 200 min", "value": 494.5, "unit": "mOsm/kg"}, {"measurement": "Urine Output, Mean", "setting": "2.0 ng/kg, time 200 min", "value": 1.1, "unit": "mL/min"}, {"measurement": "Urine Osmolality, Mean", "setting": "2.0 ng/kg, time 220 min", "value": 438.7, "unit": "mOsm/kg"}, {"measurement": "Urine Output, Mean", "setting": "2.0 ng/kg, time 220 min", "value": 1.3, "unit": "mL/min"}, {"measurement": "Urine Osmolality, Mean", "setting": "2.0 ng/kg, time 240 min", "value": 455.1, "unit": "mOsm/kg"}, {"measurement": "Urine Output, Mean", "setting": "2.0 ng/kg, time 240 min", "value": 2.2, "unit": "mL/min"}, {"measurement": "Urine Osmolality, Mean", "setting": "2.0 ng/kg, time 260 min", "value": 355.3, "unit": "mOsm/kg"}, {"measurement": "Urine Output, Mean", "setting": "2.0 ng/kg, time 260 min", "value": 2.4, "unit": "mL/min"}, {"measurement": "Urine Osmolality, Mean", "setting": "2.0 ng/kg, time 280 min", "value": 343.2, "unit": "mOsm/kg"}, {"measurement": "Urine Output, Mean", "setting": "2.0 ng/kg, time 280 min", "value": 2.5, "unit": "mL/min"}, {"measurement": "Urine Osmolality, Mean", "setting": "2.0 ng/kg, time 300 min", "value": 324.4, "unit": "mOsm/kg"}, {"measurement": "Urine Output, Mean", "setting": "2.0 ng/kg, time 300 min", "value": 3.2, "unit": "mL/min"}, {"measurement": "Urine Osmolality, Mean", "setting": "2.0 ng/kg, time 320 min", "value": 220.9, "unit": "mOsm/kg"}, {"measurement": "Urine Output, Mean", "setting": "2.0 ng/kg, time 320 min", "value": 6.6, "unit": "mL/min"}, {"measurement": "Urine Osmolality, Mean", "setting": "2.0 ng/kg, time 340 min", "value": 173.0, "unit": "mOsm/kg"}, {"measurement": "Urine Osmolality, Mean", "setting": "2.0 ng/kg, time 360 min", "value": 143.8, "unit": "mOsm/kg"}, {"measurement": "Urine Output, Mean", "setting": "2.0 ng/kg, time 360 min", "value": 9.3, "unit": "mL/min"}, {"measurement": "Urine Osmolality, Mean", "setting": "[3]", "value": 55.6, "unit": "mOsm/kg"}, {"measurement": "Urine Output, Mean", "setting": "[3]", "value": 16.9, "unit": "mL/min"}, {"measurement": "antidiuretic effect", "setting": "low doses as i.v. infusions over 2 hours, dose response fashion", "value": "significant antidiuretic effects"}]}]}
